Assay results: US8295924B2, “Transdermal systems for the delivery of ionic agents directly to open wounds and surgically repaired incisions” (Teikoku Pharma USA, Inc., priority 2006, dated 2012)

Conditions: hairless rats, pad saturated with 4% lidocaine, 2 cm^2 delivery pad, 0.3 mA for 24 hours, active iontophoretic probe; for the entire 24-hour period
From the text: An incision was made in hairless rats, which was then sutured closed.

Concentration of lidocaine generated in the incision: sufficient to cause anesthesia
Compound: CCN(CC)CC(=O)Nc1c(C)cccc1C [lidocaine]
